Reference: patent US20030165579A1, “Euphorbia antiquorum extract, a pharmaceutical composition containing the same and methods for treatment of cancers” (priority 2002, published 2003)

Key:
[1] = system: Ehrlich acites tumor cell; conditions: Planta Med. 62, 322-5, 1996; cited from earlier work
[2] = system: P-388 lymphocytic leukemia; conditions: mice; cited from earlier work
hepatoma = conditions: cited from earlier work
MOLT 4 = experiment: Cell proliferation assay (MTS) on MOLT 4; format: cell-based, Human; conditions: for Cell Growth: positive control
Protocol: (§1) The ability of extract of Euphorbia antiquorum described in Example 1 to inhibit the growth of five different human tumor cell lines was tested. The activity of Doxorubicin, a currently clinically used chemotherapeutic agent, against the tumor cell lines was tested as a control.
(§2) Five human tumor cell lines COLO 205, HT-29, U-937, MOLT4 and HA22T/VGH, were tested in this example (Table 3).
(§3) All five cancer cell lines were stored in liquid nitrogen. After thawing, cells were maintained as monolayer in appropriate medium (GIBCO, USA) supplemented with 10% fetal bovine serum, sodium bicarbonate, L-glutamine (2 mM), streptomycin (100 μg/ml) and penicillin-G (100 units/ml) in a humidified incubator at 37±1° C. and 5% CO2 in air.
(§4) Exponentially growing human cancer cells were seeded in an appropriate medium in 96-well ELISA microtiter plates. The number of cells for each cell line plated in 96-well plates was determined from the growth curve obtained in MTS assay (600 to 20,000 cells depending on cell line). These plates of adherent cells were incubated overnight. Six well cultures were used for each concentration of MH801 of the invention and for negative and positive control cultures.
(§5) MH801 was dissolved in culture medium. […] Since the solution prepared in culture medium at working concentration can be used directly rather than a stock solution at 200 fold concentration in DMSO, culture medium, instead of DMSO, was used as vehicle in the present invention. Maximum concentration for this assay was 10 mg/ml. Serial ten fold dilution was used in this invention, and therefore, the concentrations were 10, 1, 0.1, 0.01 and 0.001 mg/ml. After sufficient mixing, this solution was passed through filter of 0.2 μm pore size for sterility. Filtrate was serially diluted with culture medium to desired concentrations for treatment.
(§6) After three days of culture, the viable cells were counted by changing the culture medium containing a tetrazolium compound
(§7) (3-4,5-dimethylthiazol-2-yl)-5(3-carboxymethoxyphenyl)-2-(4-sulfophenyl)-2H-tetrazolium, inner salt and an electron coupling reagent to measure mitochondrial enzyme activity. The absorbance at […] was measured after 2 hours to 4 hours reaction time. Cell growth % is calculated using the following equations: [formula]
(§8) Doxourbicin was used as positive control for assay system evaluation and was prepared in dimethyl sulfoxide (Merck Art. 2931, Germany) as stock solution to be added to culture medium.

U-937 = experiment: Cell proliferation assay (MTS) on U-937; format: cell-based, Human; conditions: for Cell Growth: positive control
Protocol: as §1, §2, §3, §4, §5, §6, §7, §8

COLO 205 = experiment: Cell proliferation assay (MTS) on COLO 205; format: cell-based, Human; conditions: for Cell Growth: positive control
Protocol: as §1, §2, §3, §4, §5, §6, §7, §8

tumors = conditions: chemotherapy, tumor control; cited from earlier work
HT-29 = experiment: Cell proliferation assay (MTS) on HT-29; format: cell-based, Human; conditions: for Cell Growth: positive control
Protocol: as §1, §2, §3, §4
as §5, with “After sufficient mixing, this solution was passed through filter of 0.2 μm pore size for sterility. Filtrate was serially diluted with culture medium to desired concentrations for treatment.” left out
as §6
as §7, with “[formula] […]” for “[formula]”

HA22T/VGH = experiment: Cell proliferation assay (MTS) on HA22T/VGH; format: cell-based, Human; conditions: positive control
Protocol: as §1, §2, §3, §4, §5, §6, §7, §8

Compound: 9,19-cycloart-23-ene-3 β,24-diol
- inhibitory activity against Ehrlich acites tumor cell [1]: significant inhibitory activity

Compound: CC1=C[C@]23C(=O)[C@@H](C=C(COC(=O)c4ccccc4)[C@@H](O)[C@]2(O)[C@H]1OC(=O)c1ccccc1)[C@H]1[C@@H](C[C@H]3C)C1(C)C [Ingenol 3,20-debenzoate]
- antileukemic activity against P-388 lymphocytic leukemia [2]: antileukemic activity

Compound: CCCCCCCCCCCCCCCC(=O)OC[C@@]12O[C@@H]1[C@@H]1C(=O)[C@]3(C=C(C)[C@H](OC(=O)C(C)C(C)C)[C@@]3(O)[C@@H]2O)[C@H](C)C[C@]2(OC(=O)CCCCCCCCCCC)[C@H]1C2(C)C (stereo partly shown) [6,7-epoxy-13-hydroxyingenol-3-(2,3-dimethylbutanoate)-13 dodecanoate-20-hexadecanoate]
- antileukemic activity against P-388 lymphocytic leukemia [2]: antileukemic effect

Compound: C/C=C(\C)C(=O)O[C@@H]1[C@@H](C)[C@@]2(O)[C@@H](C=C(CO)C[C@]3(O)C(=O)C(C)=C[C@@H]23)[C@@H]2C(C)(C)[C@]12OC(=O)CCCCCCCCC [phorbol 12-tiglate 13-decanoate]
- antileukemic activity against P-388 lymphocytic leukemia [2]: antileukemic activity

Compound: CCCCCCCCCCCCCCCC(=O)OCC1=C[C@@H]2C(=O)[C@]3(C=C(C)[C@H](OC(=O)C(C)C(C)C)[C@@]3(O)[C@@H]1O)[C@H](C)C[C@]1(OC(=O)CCCCCCCCCCC)[C@H]2C1(C)C (stereo partly shown) [13-hydroxyingenol-3-(2,3-dimethylbutanoate)-13-dodecanoate-20-hexadecanoate]
- antileukemic activity against P-388 lymphocytic leukemia [2]: antileukemic effect

Compound: O=c1[nH]cc(F)c(=O)[nH]1 [5-FU]
- patients responded to the medicine (hepatoma; 62 hepatoma patients, hepatic intra-arterial infusion): 48%
- survival, non-responders (hepatoma; hepatoma patients who did not respond): 1.8 months
- survival in average, responders (hepatoma; hepatoma patients who responded): 6.9 months

Compound: COc1cccc2c1C(=O)c1c(O)c3c(c(O)c1C2=O)C[C@@](O)(C(=O)CO)C[C@@H]3O[C@H]1C[C@H](N)[C@H](O)[C@H](C)O1 [Doxorubicin]
- Cell Growth (MOLT 4; MOLT 4, 0.0058 μg/ml): 71.2%
- Cell Growth (MOLT 4; MOLT 4, 0.058 μg/ml): 0%
- Cell Growth (MOLT 4; MOLT 4, 0.58 μg/ml): 0%
- Cell Growth (MOLT 4; MOLT 4, 5.8 μg/ml): 0%
- antiproliferative effect (MOLT 4; MOLT 4, positive control): very strong antiproliferative effect
- Cell Growth (U-937; U-937, 0.0058 μg/ml): 100.5%
- Cell Growth (U-937; U-937, 0.058 μg/ml): 80.9%
- Cell Growth (U-937; U-937, 0.58 μg/ml): 3.7%
- Cell Growth (U-937; U-937, 5.8 μg/ml): 1.6%
- antiproliferative effect (U-937; U-937, positive control): very strong antiproliferative effect
- Cell Growth (COLO 205; COLO 205, 0.058 μg/ml): 63.2%
- Cell Growth (COLO 205; COLO 205, 0.58 μg/ml): 33.8%
- Cell Growth (COLO 205; COLO 205, 5.8 μg/ml): 8.23%
- antiproliferative effect (COLO 205; COLO 205, positive control): very strong antiproliferative effect
- remission effect (tumors): 15-23%
- Cell Growth (HT-29; HT-29, 1.74 μg/ml): 35%
- Cell Growth (HT-29; HT-29, 3.48 μg/ml): 15.9%
- antiproliferative effect (HT-29; HT-29, positive control): very strong antiproliferative effect
- Cell Growth (HA22T/VGH; 0.0058 μg/ml): 103%
- Cell Growth (HA22T/VGH; 0.058 μg/ml): 81.53%
- Cell Growth (HA22T/VGH; 0.58 μg/ml): 38.8%
- Cell Growth (HA22T/VGH; 5.8 μg/ml): 14.4%
- antiproliferative effect (HA22T/VGH): very strong antiproliferative effect
